Here are results for two molecules from the NIST ThermoML archive (doi:10.1016/j.tca.2015.07.018).

Each structure is given as a SMILES string. Numbers after ± are expanded uncertainties.

For the data set the following is noted: for vapor or sublimation pressure: Crystal, Rate of evaporation; for Triple point temperature: From the change of vapor pressure slope.

For orientation: vapor or sublimation pressure means the pressure of vapour in equilibrium with the condensed phase. For the molecule `[Cl-].[Cl-].[Cl-].[In+3]` [indium chloride], the “vapor or sublimation pressure” value reads like this: (570 K) 0.004417 ± 0.00044 kPa; (580 K) 0.007462 ± 0.00075 kPa; (590 K) 0.01238 ± 0.0012 kPa; (600 K) 0.02021 ± 0.002 kPa; (610 K) 0.03245 ± 0.0032 kPa; (620 K) 0.05132 ± 0.0051 kPa. The “vapor or sublimation pressure” value (630 K) is recorded as 0.07998 ± 0.008 kPa and the “vapor or sublimation pressure” value (640 K) is given as 0.1229 ± 0.012 kPa.

In the case of `[Cl][Cu]` [copper monochloride], the Triple point temperature (Crystal 1) came out at 701 ± 6 K and the Triple point temperature (Crystal 2) amounted to 688 ± 6 K.
